IC50 data for 14 molecules are collected here from US20240116985A1, “STAPLED PEPTIDES AND METHODS THEREOF” (priority 2020, published 2024).

The target of the experiment is T1, full-length beta-Catenin (Uniprot ID P35222) (Homo sapiens, UniProt P35222).
T1 construct: 10 nM full-length beta-Catenin (Uniprot ID P35222)
T1 sequence (P35222 1-781): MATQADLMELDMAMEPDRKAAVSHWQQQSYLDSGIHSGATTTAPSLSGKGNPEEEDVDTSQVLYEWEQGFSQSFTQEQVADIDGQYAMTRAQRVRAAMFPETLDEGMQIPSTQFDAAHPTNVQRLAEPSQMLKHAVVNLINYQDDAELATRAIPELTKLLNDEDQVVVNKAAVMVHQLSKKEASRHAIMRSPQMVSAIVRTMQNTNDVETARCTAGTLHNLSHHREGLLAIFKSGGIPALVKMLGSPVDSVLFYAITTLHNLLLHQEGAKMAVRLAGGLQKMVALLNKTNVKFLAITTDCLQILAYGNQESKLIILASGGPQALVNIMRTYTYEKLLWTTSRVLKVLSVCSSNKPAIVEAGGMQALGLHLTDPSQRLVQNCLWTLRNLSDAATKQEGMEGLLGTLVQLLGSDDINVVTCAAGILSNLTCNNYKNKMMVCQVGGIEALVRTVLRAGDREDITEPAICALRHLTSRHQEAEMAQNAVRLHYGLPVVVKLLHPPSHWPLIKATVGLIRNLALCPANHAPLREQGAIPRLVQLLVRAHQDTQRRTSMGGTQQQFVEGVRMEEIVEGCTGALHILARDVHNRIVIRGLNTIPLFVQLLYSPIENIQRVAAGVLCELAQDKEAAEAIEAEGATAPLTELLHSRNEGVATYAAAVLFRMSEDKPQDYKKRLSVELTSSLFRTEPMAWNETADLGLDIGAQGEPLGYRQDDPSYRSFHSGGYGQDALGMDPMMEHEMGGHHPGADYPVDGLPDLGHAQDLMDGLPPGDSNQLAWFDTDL
In words: Fluorescence polarization IC50 (beta-catenin / 5FAM-TCF4 10-53 competition). The format is binding. On the technique in general: Polarisation of emitted light reports the rotation of a fluorescent probe.

Where [1] appears, read: fluorescence polarization, read-out: beta-Catenin FP IC50.
The mark [2] stands for this setting: fluorescence polarization, beta-catenin, read-out: FP EC50.

Structures are written as SMILES. Where two headings read alike, the source gives them in different places.

As for `C[C@@H]1NC(=O)[C@H](C)NC(=O)[C@H](CC(=O)O)NC(=O)[C@H](CC(=O)O)NC(=O)C2(CCCC=CCCCOC(=O)N3CC[C@@](C(=O)N[C@@H](Cc4ccsc4)C(=O)N[C@@H](Cc4csc5ccccc45)C(=O)N[C@@H](CCC(N)=O)C(N)=O)(C3)NC(=O)[C@H](CC(N)=O)NC(=O)[C@H](Cc3ccccc3)NC1=O)CCCC=CCS(=O)(=O)N1CCCC1C(=O)N[C@@H](CC(=O)O)C(=O)N[C@@H](CC(C)(C)C)C(=O)N2` (single isomer, unassigned) [I-1576, ProSAm3-Asp-Npg-B5-Asp-Asp-Ala-Ala-Phe-Asn-PyrS2-3Thi-BztA-Gln-NH2], the IC50 under setting [1] was found to be 224 nM.

Consider `C[C@@H]1NC(=O)[C@H](C)NC(=O)[C@H](CC(=O)O)NC(=O)[C@H](CC(=O)O)NC(=O)C2(CCCC=CCCCOC(=O)N3CC[C@@](C(=O)N[C@@H](Cc4ccsc4)C(=O)N[C@@H](Cc4csc5ccccc45)C(=O)N[C@@H](CCC(N)=O)C(N)=O)(C3)NC(=O)[C@H](CC(N)=O)NC(=O)[C@H](Cc3ccccc3)NC1=O)CCCC=CCS(=O)(=O)N1CCCC1C(=O)N[C@@H](CC(=O)O)C(=O)N[C@@H](CC(C)(C)C)C(=O)N2` (single isomer, unassigned) [I-1577, ProSAm3-Asp-Npg-B5-Asp-Asp-Ala-Ala-Phe-Asn-PyrS2-3Thi-BztA-Gln-NH2], for which the IC50 under setting [1] is 45 nM.

As to `CC(=O)N1CCC[C@]12CC=CCCCC1(CCCC=CCCCOC(=O)N3CC[C@@](C(=O)N[C@@H](Cc4ccccc4C(F)(F)F)C(=O)N[C@@H](Cc4csc5ccccc45)C(=O)N[C@@H](CO)C(N)=O)(C3)NC(=O)[C@H](CC(C)C)NC(=O)[C@H](Cc3ccccc3)NC(=O)[C@H](C)NC(=O)[C@H](C)NC(=O)[C@H](Cc3ccccc3C(=O)O)NC(=O)[C@H](CC(=O)O)NC1=O)NC(=O)[C@H](CC(C)(C)C)NC(=O)[C@H](CC(=O)O)NC2=O` (single isomer, unassigned) [I-1660, Ac-PL3-Asp-Npg-B5-Asp-2COOHF-Ala-Ala-Phe-Leu-PyrS2-2F3MeF-BztA-Ser-NH2], under setting [1], the IC50 is 99 nM.

With `CC(=O)N1CCC[C@]12CC=CCCCC1(CCCC=CCCCOC(=O)N3CC[C@@](C(=O)N[C@@H](Cc4ccsc4)C(=O)N[C@@H](Cc4csc5ccccc45)C(=O)N[C@@H](CCC(N)=O)C(N)=O)(C3)NC(=O)[C@H](CC(N)=O)NC(=O)[C@H](Cc3ccccc3)NC(=O)[C@H](C)NC(=O)[C@H](C)NC(=O)[C@H]([C@@H](C)O)NC(=O)[C@H](CC(N)=O)NC1=O)NC(=O)[C@H](CC(C)(C)C)NC(=O)[C@H](Cc1ccccc1C(=O)O)NC2=O` (single isomer, unassigned) [I-2136, Ac-PL3-2COOHF-Npg-B5-Asn-Thr-Ala-Ala-Phe-Asn-PyrS2-3Thi-BztA-Gln-NH2], under setting [1], the IC50 is 5820 nM.

With `CC(=O)N1CCC[C@]12CC=CCCCC1(CCCC=CCCCOC(=O)N3CC[C@@](C(=O)N[C@@H](Cc4ccsc4)C(=O)N[C@@H](Cc4csc5ccccc45)C(=O)N[C@@H](CCC(N)=O)C(N)=O)(C3)NC(=O)[C@H](CC(N)=O)NC(=O)[C@H](Cc3ccccc3)NC(=O)[C@H](C)NC(=O)[C@H](C)NC(=O)[C@H]([C@@H](C)O)NC(=O)[C@H](CC(N)=O)NC1=O)NC(=O)[C@H](CC(C)(C)C)NC(=O)[C@H](Cc1ccccc1C(=O)O)NC2=O` (single isomer, unassigned) [I-2137, Ac-PL3-2COOHF-Npg-B5-Asn-Thr-Ala-Ala-Phe-Asn-PyrS2-3Thi-BztA-Gln-NH2], the IC50 under setting [1] stood at 1900 nM.

For `CC(=O)N1CCC[C@]12CC=CCCCC1(CCCC=CCCCOC(=O)N3CC[C@@](C(=O)N[C@@H](Cc4ccsc4)C(=O)N[C@@H](Cc4csc5ccccc45)C(=O)N[C@@H](CCC(N)=O)C(N)=O)(C3)NC(=O)[C@H](CC(C)C)NC(=O)C(Cc3cccc(C(=O)Oc4ccccc4)c3)NC(=O)[C@H](C)NC(=O)[C@H](C)NC(=O)[C@H](CN(CC(=O)O)CC(F)(F)F)NC(=O)[C@H](CC(=O)O)NC1=O)NC(=O)[C@H](CC(C)(C)C)NC(=O)[C@H](CC(=O)O)NC2=O` (single isomer, unassigned) [I-2150, Ac-PL3-Asp-Npg-B5-Asp-TfeGA-Ala-Ala-3CO2PhF-Leu-PyrS2-3Thi-BztA-Gln-NH2], the IC50 under setting [1] is 647 nM.

Take `CNC(=O)C[C@@H]1NC(=O)C2(CCCC=CCCCCCC[C@@](C)(C(=O)N[C@@H](Cc3ccccc3)C(=O)N[C@@H](Cc3csc4ccccc34)C(=O)N[C@@H](CCC(N)=O)C(N)=O)NC(=O)[C@H](C(C)C)NC(=O)[C@H](Cc3ccccc3)NC(=O)[C@H](C)NC(=O)[C@H](C)NC(=O)[C@H](CC(=O)O)NC1=O)CCCC=CC[C@]1(CCCN1C(C)=O)C(=O)N[C@@H](CC(=O)O)C(=O)N[C@@H](C)C(=O)N2` (stereo partly drawn) [I-540, Ac-PL3-Asp-Ala-B5-[NHMe]AsnR-Asp-Ala-Ala-Phe-Val-S8-Phe-BztA-Gln-NH2]: under setting [1], the IC50 stood at 5000 nM.

As to `CC(=O)N1CCC[C@]12CC=CCCCC1(CCCC=CCCCOC(=O)N3CC[C@@](C(=O)N[C@@H](Cc4ccsc4)C(=O)N[C@@H](Cc4csc5ccccc45)C(=O)N[C@@H](CCC(N)=O)C(=O)O)(C3)NC(=O)[C@H](CC(N)=O)NC(=O)[C@H](CC(=O)O)NC(=O)[C@H](C)NC(=O)[C@H](C)NC(=O)[C@H](CC(=O)O)NC(=O)[C@H](CC(=O)O)NC1=O)NC(=O)[C@H](CC(C)(C)C)NC(=O)[C@H](Cc1ccccc1)NC2=O` (stereo partly drawn) [I-1027, Ac-PL3-Phe-Npg-B5-Asp-Asp-Ala-Ala-Asp-Asn-PyrS2-3Thi-BztA-Gln-OH], the IC50 under setting [2] came out at 1140 nM.

As for `CC(=O)N1CCC[C@]12CC=CCCCC1(CCCC=CCCCOC(=O)N3CC[C@@](C(=O)N[C@@H](Cc4ccccc4Cl)C(=O)N[C@@H](Cc4csc5ccccc45)C(=O)N4CCC[C@H]4CO)(C3)NC(=O)[C@H](CC(N)=O)NC(=O)[C@H](Cc3ccccc3)NC(=O)[C@H](C)NC(=O)[C@H](C)NC(=O)[C@H](CC(=O)O)NC(=O)[C@H](CC(=O)O)NC1=O)NC(=O)[C@H](CC(C)(C)C)NC(=O)[C@H](CC(=O)O)NC2=O` (stereo partly drawn) [I-1084, Ac-PL3-Asp-Npg-B5-Asp-Asp-Ala-Ala-Phe-Asn-PyrS2-2C1F-BztA-Proo1], for the setting “read-out: beta-Catenin FP IC50”, the IC50 came to 368 nM.

Take `CC(=O)N1CCC[C@]12CC=CCCCC1(CCCC=CCCCOC(=O)N3CC[C@@](C(=O)N[C@@H](Cc4ccccc4Cl)C(=O)N[C@@H](Cc4csc5ccccc45)C(=O)N[C@@H](CN4CCOCC4)C(N)=O)(C3)NC(=O)[C@H](CC(N)=O)NC(=O)[C@H](Cc3ccccc3)NC(=O)[C@H](C)NC(=O)[C@H](C)NC(=O)[C@H](CC(=O)O)NC(=O)[C@H](CC(=O)O)NC1=O)NC(=O)[C@H](CC(C)(C)C)NC(=O)[C@H](CC(=O)O)NC2=O` (stereo partly drawn) [I-1133, Ac-PL3-Asp-Npg-B5-Asp-Asp-Ala-Ala-Phe-Asn-PyrS2-2C1F-BztA-MorphAla-NH2]: the IC50 under setting [1] was 5 nM.

With `CC(=O)N1CCC[C@]12CC=CCCCC1(CCCC=CCCCOC(=O)N3CC[C@@](C(=O)N[C@@H](Cc4ccccc4Cl)C(=O)N[C@@H](Cc4csc5ccccc45)C(=O)N[C@@H](CN4CCOCC4)C(N)=O)(C3)NC(=O)[C@H](CC(N)=O)NC(=O)[C@H](Cc3ccccc3)NC(=O)[C@H](C)NC(=O)[C@H](C)NC(=O)[C@H](CC(=O)O)NC(=O)[C@H](CC(=O)O)NC1=O)NC(=O)[C@H](CC(C)(C)C)NC(=O)[C@H](CC(=O)O)NC2=O` (stereo partly drawn) [I-1134, Ac-PL3-Asp-Npg-B5-Asp-Asp-Ala-Ala-Phe-Asn-PyrS2-2C1F-BztA-MorphAla-NH2], the IC50 runs as follows: under setting [2], 6 nM; under setting [1], 6 nM.

Turning to `CC(=O)N1CCC[C@]12CC=CCCCC1(CCCC=CCCCOC(=O)N3CC[C@@](C(=O)N[C@@H](Cc4ccccc4Cl)C(=O)N[C@@H](Cc4csc5ccccc45)C(=O)N[C@@H](CCC(N)=O)C(N)=O)(C3)NC(=O)[C@H](CO)NC(=O)[C@H](Cc3ccccc3)NC(=O)[C@H](CC(C)C)NC(=O)[C@H](C)NC(=O)[C@H](CC(=O)O)NC(=O)[C@H](CC(=O)O)NC1=O)NC(=O)[C@H](Cc1ccccc1)NC(=O)[C@H](CC(=O)O)NC2=O` (stereo partly drawn) [I-1154, Ac-PL3-Asp-Phe-B5-Asp-Asp-Ala-Leu-Phe-Ser-PyrS2-2C1F-BztA-Gln-NH2], under setting [1], the IC50 was determined as 45 nM.

With `CC(=O)N1CCC[C@]12CC=CCCCC1(CCCC=CCCCOC(=O)N3CC[C@@](C(=O)N[C@@H](Cc4ccccc4Cl)C(=O)N[C@@H](Cc4csc5ccccc45)C(=O)N[C@@H](CCC(N)=O)C(N)=O)(C3)NC(=O)[C@H](CO)NC(=O)[C@H](Cc3ccccc3)NC(=O)[C@H](CC(C)C)NC(=O)[C@H](CC(C)C)NC(=O)[C@H](CC(=O)O)NC(=O)[C@H](CC(=O)O)NC1=O)NC(=O)[C@H](Cc1ccccc1)NC(=O)[C@H](CC(=O)O)NC2=O` (stereo partly drawn) [I-1155, Ac-PL3-Asp-Phe-B5-Asp-Asp-Leu-Leu-Phe-Ser-PyrS2-2C1F-BztA-Gln-NH2], the IC50 under setting [1] worked out at 60 nM.

For `CC(=O)N1CCC[C@]12CC=CCCCC1(CCCC=CCCCOC(=O)N3CC[C@@](C(=O)N[C@@H](Cc4ccsc4)C(=O)N[C@@H](Cc4csc5ccccc45)C(=O)N[C@@H](CCC(N)=O)C(N)=O)(C3)NC(=O)[C@H](CC(N)=O)NC(=O)[C@H](Cc3ccccc3)NC(=O)[C@H](C)NC(=O)[C@H](C)NC(=O)[C@H](CN(CC(=O)O)CC(F)(F)F)NC(=O)[C@H](CC(=O)O)NC1=O)NC(=O)[C@H](CC(C)(C)C)NC(=O)[C@H](CC(=O)O)N(C)C2=O` (stereo partly drawn) [I-1162, Ac-PL3-NMeD-Npg-B5-Asp-TfeGA-Ala-Ala-Phe-Asn-PyrS2-3Thi-BztA-Gln-NH2], the IC50 under setting [1] came to 1530 nM.
